Assays:
Type in all cases: in vivo
Capsella bursa-pastoris = test: Weeding effect in pre-emergence stage; settings: 30 g/ha, 4 weeks
Method in brief: (§1)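 Pots were kept in the greenhouse for 4 weeks and then rated for growth control on activity-level criteria. Spraying took place immediately after sowing at application rates of 500 to 7.5 g/ha, using an acetone/tween 80 formulation diluted with water, on seeds under 0.5-2 cm of soil.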

Veronica didyma Tenore = test: Weeding effect in pre-emergence stage; settings: 30 g/ha, 4 weeks
Method in brief: as §1

Amaranthus retroflexus = test: Weeding effect in pre-emergence stage; settings: 30 g/ha, 4 weeks
Method in brief: as §1

Setaria viridis [1] = test: Weeding effect in pre-emergence stage; settings: 30 g/ha, 4 weeks
Method in brief: as §1

Abutilon theophrasti [2] = test: Weeding effect in pre-emergence stage; settings: 30 g/ha, 4 weeks
Method in brief: as §1

Descurainia sophia = test: Weeding effect in pre-emergence stage; settings: 30 g/ha, 4 weeks
Method in brief: as §1

Monochoria vaginalis = test: Weed control effect evaluation in rice field; settings: rice field pot, 30 g/ha, 14 days after treatment
From the text: (§2) The activity level criteria for plant damage (i.e., growth control rate) are as follows:
(§3) Rice field soil was loaded into a 1/1,000,000 ha pot. The seeds of Echinochloa crusgalli. Scirpus juncoides. Bidens tripartita L., Monochoria vaginalis, and Leptochloa chinensis were sowed and gently covered with soil, then left to stand still in greenhouse in the state of 0.5-1 cm of water storage. The tuber of Sagittaria trifolia was planted in the next day or 2 days later. It was kept at 3-4 cm of water storage thereafter. The weeds were treated by dripping the WP or SC water diluents prepared according to the common preparation method of the compounds of the present invention with pipette homogeneously to achieve specified effective amount when Echinochloa crusgalli. Scirpus juncoides, Bidens tripartita L., Monochoria vaginalis, and Leptochloa chinensis reached 0.5 leaf stage and Sagittaria trifolia reached the time point of primary leaf stage.
(§4) The fertility condition of Echinochloa crusgalli. Scirpus juncoides. Bidens tripartita L., Monochoria vaginalis, Leptochloa chinensis and Sagittaria trifolia 14 days after the treatment of the compound of the invention and the fertility condition of rice 21 days after the treatment of the compound of the invention respectively with the naked eye. Evaluate the weed control effect with the above activity standard level. Many compounds show excellent activity and selectivity.

Scirpus juncoides = test: Weed control effect evaluation in rice field; settings: rice field pot, 30 g/ha, 14 days after treatment
From the text: as §2, §3, §4

Leptochloa chinensis = test: Weed control effect evaluation in rice field; settings: rice field pot, 30 g/ha, 14 days after treatment
From the text: as §2, §3, §4

Rice = test: Transplanted rice safety evaluation; settings: transplanted japonica rice, 30 g/ha, 21 days after treatment
Description: as §2
In addition, the rice field soil that loaded into the 1/1,000,000 ha pot was leveled to keep water storage at 3-4 cm depth. The 5 leaf stage rice (japonica rice) was transplanted at 3 cm of transplanting depth the next day. The compound of the present invention was treated by the same way after 5 days of transplantation.
as §4

Echinochloa crusgalli = test: Weeding effect in post-emergence stage; settings: Dose 15 g/ha; level of fresh weight growth control rate
Method in brief: (§5)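 Doses of 500, 250, 125, 60, 30, 15 and 7.5 g/ha, with methyl oleate synergist (1.5 liter/ha) and Tween 80 from acetone solution, applied by spray tower post-emergence (2–3 leaf stage). Weed control scored after 3 further greenhouse weeks, averaged over triplicates.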

Alopecurus japonicus = test: Weeding effect in post-emergence stage; settings: Dose 15 g/ha; level of fresh weight growth control rate
Method in brief: as §5

Digitaria sanguinalis = test: Weeding effect in post-emergence stage; settings: Dose 15 g/ha; level of fresh weight growth control rate
Method in brief: as §5

Eleusine indica = test: Weeding effect in post-emergence stage; settings: Dose 15 g/ha; level of fresh weight growth control rate
Method in brief: as §5

Setaria viridis [3] = test: Weeding effect in post-emergence stage; settings: Dose 15 g/ha; level of fresh weight growth control rate
Method in brief: as §5

Abutilon theophrasti [4] = test: Weeding effect in post-emergence stage; settings: Dose 15 g/ha; level of fresh weight growth control rate
Method in brief: as §5

Soybeans = test: Pre-emergence stage, crop selectivity; settings: 30 g/ha, 4 weeks
Method in brief: as §1

Peanut = test: Pre-emergence stage, crop selectivity; settings: 30 g/ha, 4 weeks
Method in brief: as §1

cotton = test: Pre-emergence stage, crop selectivity; settings: 30 g/ha, 4 weeks
Method in brief: as §1

corn = test: Pre-emergence stage, crop selectivity; settings: 30 g/ha, 4 weeks
Method in brief: as §1

SMILES	activity level (growth control rate) Capsella bursa-pastoris (Capsella bursa-pastoris)	activity level (growth control rate) Veronica didyma Tenore (Veronica didyma Tenore)	activity level (growth control rate) Amaranthus retroflexus (Amaranthus retroflexus)	activity level (growth control rate) Setaria viridis (Setaria viridis [1])	activity level (growth control rate) Abutilon theophrasti (Abutilon theophrasti [2])	activity level (growth control rate) Descurainia sophia (Descurainia sophia)	activity level (weed control effect) Monochoria vaginalis (Monochoria vaginalis)	activity level (weed control effect) Scirpus juncoides (Scirpus juncoides)	activity level (weed control effect) Leptochloa chinensis (Leptochloa chinensis)	plant damage level Rice (Rice)	Weeding effect in post-emergence stage, Echinochloa crusgalli (Echinochloa crusgalli)	Weeding effect in post-emergence stage, Alopecurus japonicus (Alopecurus japonicus)	Weeding effect in post-emergence stage, Digitaria sanguinalis (Digitaria sanguinalis)	Weeding effect in post-emergence stage, Eleusine indica (Eleusine indica)	Weeding effect in post-emergence stage, Setaria viridis (Setaria viridis [3])	Weeding effect in post-emergence stage, Abutilon theophrasti (Abutilon theophrasti [4])	plant damage level Soybeans (Soybeans)	plant damage level Peanut (Peanut)	plant damage level Cotton (cotton)	plant damage level Corn (corn)
CCOC(=O)[C@@H](C)O/N=C/c1cc(-n2c(=O)cc(C(F)(F)F)n(C)c2=O)c(F)cc1Cl [196(R)]	5 (Level 5: growth control rate is above 85%)	5 (Level 5: growth control rate is above 85%)	5 (Level 5: growth control rate is above 85%)	5 (Level 5: growth control rate is above 85%)	5 (Level 5: growth control rate is above 85%)	5 (Level 5: growth control rate is above 85%)	5 (Level 5: growth control rate is above 85%)	5 (Level 5: growth control rate is above 85%)	5 (Level 5: growth control rate is above 85%)	0 (Level 0: growth control rate is less than 5%)	5 (Level 5: growth control rate is above 85%)	5 (Level 5: growth control rate is above 85%)	5 (Level 5: growth control rate is above 85%)	5 (Level 5: growth control rate is above 85%)	5 (Level 5: growth control rate is above 85%)	5 (Level 5: growth control rate is above 85%)	0 (Level 0: growth control rate is less than 5%)	0 (Level 0: growth control rate is less than 5%)	0 (Level 0: growth control rate is less than 5%)	0 (Level 0: growth control rate is less than 5%)
C#CCOC(=O)[C@@H](C)O/N=C/c1cc(-n2c(=O)cc(C(F)(F)F)n(C)c2=O)c(F)cc1Cl [212(R)]	5 (Level 5: growth control rate is above 85%)	5 (Level 5: growth control rate is above 85%)	5 (Level 5: growth control rate is above 85%)	5 (Level 5: growth control rate is above 85%)	5 (Level 5: growth control rate is above 85%)	5 (Level 5: growth control rate is above 85%)	5 (Level 5: growth control rate is above 85%)	5 (Level 5: growth control rate is above 85%)	5 (Level 5: growth control rate is above 85%)	0 (Level 0: growth control rate is less than 5%)	5 (Level 5: growth control rate is above 85%)	5 (Level 5: growth control rate is above 85%)	5 (Level 5: growth control rate is above 85%)	5 (Level 5: growth control rate is above 85%)	5 (Level 5: growth control rate is above 85%)	5 (Level 5: growth control rate is above 85%)	0 (Level 0: growth control rate is less than 5%)	0 (Level 0: growth control rate is less than 5%)	0 (Level 0: growth control rate is less than 5%)	0 (Level 0: growth control rate is less than 5%)
C[C@@H](O/N=C/c1cc(-n2c(=O)cc(C(F)(F)F)n(C)c2=O)c(F)cc1Cl)C(=O)OCC(F)(F)F [218(R)]	5 (Level 5: growth control rate is above 85%)	5 (Level 5: growth control rate is above 85%)	5 (Level 5: growth control rate is above 85%)	5 (Level 5: growth control rate is above 85%)	5 (Level 5: growth control rate is above 85%)	5 (Level 5: growth control rate is above 85%)	5 (Level 5: growth control rate is above 85%)	5 (Level 5: growth control rate is above 85%)	5 (Level 5: growth control rate is above 85%)	0 (Level 0: growth control rate is less than 5%)	5 (Level 5: growth control rate is above 85%)	5 (Level 5: growth control rate is above 85%)	5 (Level 5: growth control rate is above 85%)	5 (Level 5: growth control rate is above 85%)	5 (Level 5: growth control rate is above 85%)	5 (Level 5: growth control rate is above 85%)	0 (Level 0: growth control rate is less than 5%)	0 (Level 0: growth control rate is less than 5%)	0 (Level 0: growth control rate is less than 5%)	0 (Level 0: growth control rate is less than 5%)

From patent US20230111310A1, “CARBOXYLIC ACID DERIVATIVE-SUBSTITUTED IMINO ARYL COMPOUND, PREPARATION METHOD THEREFOR, HERBICIDAL COMPOSITION AND USE THEREOF” (Qingdao Kingagroot Chemical Compound Co., Ltd., priority 2020, published 2023)
